{
  "source": "patent US10653698B2",
  "about": "“Methods of improving myocardial performance in Fontan patients using udenafil compositions” (priority 2014, dated 2020)",
  "key": {"[1]": {"system": "adolescents with single ventricle physiology after Fontan palliation", "test": "Vascular function testing (EndoPAT pulse amplitude tonometry, lnRHI and other EndoPAT indices)", "type": "in vivo, human", "conditions": "for Natural Log of Reactive Hyperemia Index, Baseline measurement: day 1; for Natural Log of Reactive Hyperemia Index, Follow-up measurement: post-medication, day 5", "excerpt": "Pulse amplitude tonometry (PAT), a FDA-approved method for assessing vascular function, is increasingly being used as an alternative measure of endothelium-dependent dilation in response to reactive hyperemia and flow-mediated dilation (FMD). The PAT device records digital pulse wave amplitude (PWA) using fingertip plethysmography. PWA can be measured continuously during three phases: a quiet baseline period, 5-min forearm occlusion, and reactive hyperemia following cuff release. Unlike FMD, PAT testing is not dependent upon a highly skilled technician and post-test analysis is largely automated. Most importantly, at least one longitudinal study has shown that PAT measures of endothelial function predict CVD events over a 6-year follow-up period. These significant advantages may make PAT testing suitable for clinical practice if prognostic significance and reliability can be verified.\nThe primary outcome of vascular function was determined according to an endothelial pulse amplitude tonometry (PAT) index as determined by the EndoPAT® device (Itamar Medical, Caesarea, Israel).\nTable 16 summarizes the results for the key outcome from the vascular function testing—natural log of Reactive Hyperemia Index (lnRHI) by treatment group. Out of the 30 subjects enrolled in the treatment arms of the trial, 27 subjects had paired measurements with an acceptable quality (with QC score equal to 3 (the best) or 2). The structure of the table is similar to the one for exercise variables.\nTable 17 reports change scores only for secondary EndoPAT outcomes (RHI, Framingham RHI etc; top panel) and other EndoPAT indices."}, "[2]": {"system": "adolescents with single ventricle physiology after Fontan palliation", "test": "Exercise testing (peak VO2 at maximum effort, VO2 at anaerobic threshold)", "type": "in vivo, human", "conditions": "for Peak VO2 at Anaerobic Threshold, Baseline measurement / Peak VO2 at Maximum Effort, Baseline measurement: day 1; for Peak VO2 at Anaerobic Threshold, Follow-up measurement / Peak VO2 at Maximum Effort, Follow-up measurement: post-medication, day 5", "excerpt": "Exercise testing can include assessment of VO2 values during maximal effort or at anaerobic threshold. VO2 max, or maximal oxygen consumption, refers to the maximum amount of oxygen that an individual can utilize during intense exercise. This measurement is generally considered a reliable indicator of cardiovascular fitness and aerobic endurance. Theoretically, the more oxygen a person can use during high level exercise, the more energy that person can produce. This test is the gold standard for cardiorespiratory fitness because muscles need oxygen for prolonged (aerobic) exercise; blood carries oxygen to the muscles and the heart must pump adequate amounts of blood to meet the demands of aerobic exercise. VO2 is often measured by putting a mask on a subject, and measuring the volume and gas concentrations of inhaled and expired air. This measurement is often used in both clinical settings and research and is considered the most accurate. Testing commonly involves either exercising on a treadmill or riding a bike at increasing intensity until exhaustion, and is designed to provide readings at a maximal effort of the subject and/or at the subject's anaerobic threshold. The purpose of this example was to evaluate the efficacy of the treatment protocol described in Example 1 using various exercise testing parameters. The primary outcome of this arm of the study was maximal VO2 as determined by exercise testing. Table 14 summarizes results for the key outcome from the exercise testing—peak VO2 (limited to the subjects who achieved maximum effort) by treatment group. Out of the 36 subjects enrolled in the trial, 33 reached max effort in the exercise testing at each of the time points, and 31 subjects at both time points. The first two lines present data for baseline and follow-up measurements, while the third line presents differences between the two measurements (change scores, the outcome for this aim). […] An additional outcome, VO2 at anaerobic threshold, was also measured. Similar analyses were performed for this outcome. Overall results are similar to those for maximal VO2."}},
  "data": [
    {"smiles": "CCCOc1ccc(S(=O)(=O)NCCC2CCCN2C)cc1-c1nc2c(CCC)nn(C)c2c(=O)[nH]1", "note": "(stereo not shown) [udenafil]", "values": [
      {"measurement": "AUC2max_oc: Area under the curve to Max-Occlusion/Control, FU − BL", "setting": "[1]; 125 mg daily, N 6", "value": "1.80 ± 1.18"},
      {"measurement": "AUCall_o: Area under the curve all-Occlusion (ratio to baseline), FU − BL", "setting": "[1]; 125 mg daily, N 6", "value": "−0.28 ± 3.98"},
      {"measurement": "AUCall_oc: Area under the curve all-Occlusion/Control, FU − BL", "setting": "[1]; 125 mg daily, N 6", "value": "−1.84 ± 7.21"},
      {"measurement": "Avg2Max_o: average upto max-Occlusion (ratio to baseline), FU − BL", "setting": "[1]; 125 mg daily, N 6", "value": "0.07 ± 0.86"},
      {"measurement": "Avg2Max_oc: average up to max-Occlusion/Control, FU − BL", "setting": "[1]; 125 mg daily, N 6", "value": "−0.32 ± 1.28"},
      {"measurement": "Avgall_o: average all-Occlusion (ratio to baseline), FU − BL", "setting": "[1]; 125 mg daily, N 6", "value": "−0.03 ± 0.49"},
      {"measurement": "Avgall_oc: average all -Occlusion/Control, FU − BL", "setting": "[1]; 125 mg daily, N 6", "value": "−0.20 ± 0.84"},
      {"measurement": "Framingham RHI, FU − BL", "setting": "[1]; 125 mg daily, N 6", "value": "−0.13 ± 0.51"},
      {"measurement": "Reactive Hyperemia Index, FU − BL", "setting": "[1]; 125 mg daily, N 6", "value": "−0.21 ± 0.78"},
      {"measurement": "Natural Log of Reactive Hyperemia Index, Baseline measurement", "setting": "[1]; 125 mg daily", "value": "0.63 ± 0.37"},
      {"measurement": "Natural Log of Reactive Hyperemia Index, Follow-up measurement", "setting": "[1]; 125 mg daily", "value": "0.52 ± 0.34"},
      {"measurement": "Natural Log of Reactive Hyperemia Index, Difference, FU − BL", "setting": "[1]; All subjects (treatment arms)", "value": "−0.02 ± 0.30"},
      {"measurement": "Natural Log of Reactive Hyperemia Index, Baseline measurement", "setting": "[1]; All subjects (treatment arms)", "value": "0.52 ± 0.28"},
      {"measurement": "Natural Log of Reactive Hyperemia Index, Follow-up measurement", "setting": "[1]; All subjects (treatment arms)", "value": "0.49 ± 0.28"},
      {"measurement": "AUC2max_o: Area under the curve to Max-Occlusion (ratio to baseline), FU − BL", "setting": "[1]; All subjects, N 27", "value": "−0.26 ± 2.75"},
      {"measurement": "AUC2max_oc: Area under the curve to Max-Occlusion/Control, FU − BL", "setting": "[1]; All subjects, N 27", "value": "0.51 ± 2.91"},
      {"measurement": "AUCall_o: Area under the curve all-Occlusion (ratio to baseline), FU − BL", "setting": "[1]; All subjects, N 27", "value": "0.18 ± 3.54"},
      {"measurement": "AUCall_oc: Area under the curve all-Occlusion/Control, FU − BL", "setting": "[1]; All subjects, N 27", "value": "−0.60 ± 4.93"},
      {"measurement": "Avg2Max_o: average upto max-Occlusion (ratio to baseline), FU − BL", "setting": "[1]; All subjects, N 27", "value": "0.04 ± 0.51"},
      {"measurement": "Avg2Max_oc: average up to max-Occlusion/Control, FU − BL", "setting": "[1]; All subjects, N 27", "value": "−0.16 ± 0.79"},
      {"measurement": "Avgall_o: average all-Occlusion (ratio to baseline), FU − BL", "setting": "[1]; All subjects, N 27", "value": "0.02 ± 0.40"},
      {"measurement": "Avgall_oc: average all -Occlusion/Control, FU − BL", "setting": "[1]; All subjects, N 27", "value": "−0.06 ± 0.54"},
      {"measurement": "Framingham RHI, FU − BL", "setting": "[1]; All subjects, N 27", "value": "−0.06 ± 0.39"},
      {"measurement": "Reactive Hyperemia Index, FU − BL", "setting": "[1]; All subjects, N 27", "value": "−0.04 ± 0.56"},
      {"measurement": "Improvement in natural log of Reactive Hyperemia Index", "setting": "[1]; some patients, baseline to day 5", "value": "≤ 9.75", "unit": "%"},
      {"measurement": "Peak VO2 at Anaerobic Threshold, Difference, FU − BL", "setting": "[2]; 37.5 mg daily", "value": "-0.5 ± 4.1", "unit": "mL/min/kg"},
      {"measurement": "Peak VO2 at Maximum Effort, Difference, FU − BL", "setting": "[2]; 37.5 mg daily", "value": "-0.8 ± 1.7", "unit": "mL/min/kg"},
      {"measurement": "Peak VO2 at Anaerobic Threshold, Baseline measurement", "setting": "[2]; 37.5 mg daily", "value": "17.2 ± 5.0", "unit": "mL/min/kg"},
      {"measurement": "Peak VO2 at Maximum Effort, Baseline measurement", "setting": "[2]; 37.5 mg daily", "value": "24.6 ± 6.9", "unit": "mL/min/kg"},
      {"measurement": "Peak VO2 at Anaerobic Threshold, Follow-up measurement", "setting": "[2]; 37.5 mg daily", "value": "16.3 ± 2.0", "unit": "mL/min/kg"},
      {"measurement": "Peak VO2 at Maximum Effort, Follow-up measurement", "setting": "[2]; 37.5 mg daily", "value": "24.7 ± 6.7", "unit": "mL/min/kg"},
      {"measurement": "Peak VO2 at Anaerobic Threshold, Difference, FU − BL", "setting": "[2]; 37.5 mg twice daily", "value": "0.1 ± 1.0", "unit": "mL/min/kg"},
      {"measurement": "Peak VO2 at Maximum Effort, Difference, FU − BL", "setting": "[2]; 37.5 mg twice daily", "value": "-1.6 ± 5.1", "unit": "mL/min/kg"},
      {"measurement": "Peak VO2 at Anaerobic Threshold, Baseline measurement", "setting": "[2]; 37.5 mg twice daily", "value": "18.0 ± 3.0", "unit": "mL/min/kg"},
      {"measurement": "Peak VO2 at Maximum Effort, Baseline measurement", "setting": "[2]; 37.5 mg twice daily", "value": "30.4 ± 6.2", "unit": "mL/min/kg"},
      {"measurement": "Peak VO2 at Anaerobic Threshold, Follow-up measurement", "setting": "[2]; 37.5 mg twice daily", "value": "18.1 ± 3.0", "unit": "mL/min/kg"},
      {"measurement": "Peak VO2 at Maximum Effort, Follow-up measurement", "setting": "[2]; 37.5 mg twice daily", "value": "28.8 ± 8.1", "unit": "mL/min/kg"},
      {"measurement": "Peak VO2 at Anaerobic Threshold, Difference, FU − BL", "setting": "[2]; 87.5 mg daily", "value": "-1.1 ± 1.9", "unit": "mL/min/kg"},
      {"measurement": "Peak VO2 at Maximum Effort, Difference, FU − BL", "setting": "[2]; 87.5 mg daily", "value": "-1.4 ± 2.5", "unit": "mL/min/kg"},
      {"measurement": "Peak VO2 at Anaerobic Threshold, Baseline measurement", "setting": "[2]; 87.5 mg daily", "value": "17.6 ± 5.3", "unit": "mL/min/kg"},
      {"measurement": "Peak VO2 at Maximum Effort, Baseline measurement", "setting": "[2]; 87.5 mg daily", "value": "28.4 ± 6.2", "unit": "mL/min/kg"},
      {"measurement": "Peak VO2 at Anaerobic Threshold, Follow-up measurement", "setting": "[2]; 87.5 mg daily", "value": "16.5 ± 4.8", "unit": "mL/min/kg"},
      {"measurement": "Peak VO2 at Maximum Effort, Follow-up measurement", "setting": "[2]; 87.5 mg daily", "value": "27.1 ± 5.0", "unit": "mL/min/kg"},
      {"measurement": "Peak VO2 at Anaerobic Threshold, Difference, FU − BL", "setting": "[2]; 87.5 mg twice daily", "value": "-1.7 ± 2.1", "unit": "mL/min/kg"},
      {"measurement": "Peak VO2 at Maximum Effort, Difference, FU − BL", "setting": "[2]; 87.5 mg twice daily", "value": "0.2 ± 5.0", "unit": "mL/min/kg"},
      {"measurement": "Peak VO2 at Anaerobic Threshold, Baseline measurement", "setting": "[2]; 87.5 mg twice daily", "value": "18.3 ± 4.6", "unit": "mL/min/kg"},
      {"measurement": "Peak VO2 at Maximum Effort, Baseline measurement", "setting": "[2]; 87.5 mg twice daily", "value": "28.0 ± 5.2", "unit": "mL/min/kg"},
      {"measurement": "Peak VO2 at Anaerobic Threshold, Follow-up measurement", "setting": "[2]; 87.5 mg twice daily", "value": "16.5 ± 5.2", "unit": "mL/min/kg"},
      {"measurement": "Peak VO2 at Maximum Effort, Follow-up measurement", "setting": "[2]; 87.5 mg twice daily", "value": "28.2 ± 6.0", "unit": "mL/min/kg"},
      {"measurement": "Peak VO2 at Anaerobic Threshold, Difference, FU − BL", "setting": "[2]; 125 mg daily", "value": "1.2 ± 1.9", "unit": "mL/min/kg"},
      {"measurement": "Peak VO2 at Maximum Effort, Difference, FU − BL", "setting": "[2]; 125 mg daily", "value": "0.9 ± 2.6", "unit": "mL/min/kg"},
      {"measurement": "Peak VO2 at Anaerobic Threshold, Baseline measurement", "setting": "[2]; 125 mg daily", "value": "18.8 ± 1.8", "unit": "mL/min/kg"},
      {"measurement": "Peak VO2 at Maximum Effort, Baseline measurement", "setting": "[2]; 125 mg daily", "value": "28.6 ± 3.0", "unit": "mL/min/kg"},
      {"measurement": "Peak VO2 at Anaerobic Threshold, Follow-up measurement", "setting": "[2]; 125 mg daily", "value": "20.0 ± 3.2", "unit": "mL/min/kg"},
      {"measurement": "Peak VO2 at Maximum Effort, Follow-up measurement", "setting": "[2]; 125 mg daily", "value": "28.6 ± 3.8", "unit": "mL/min/kg"}
    ]}
  ]
}
